# Assay results reported in patent US9090608B2, “Pharmaceutical composition for preventing or treating osteoporosis or obesity comprising phenyltetrazole derivative” (KOREA RESEARCH INSTITUTE OF CHEMICAL TECHNOLOGY, priority 2009, dated 2015).
# Tests used:
# Format in all cases: cell-based
# PPARγ = experiment: TAZ activity of inhibiting PPARγ function (aP2-luc reporter in 293T cells); conditions: Homo sapiens, HEK-293T, 24 h, percentage based on inhibitory effect in non-treated control cells, read-out: Increased inhibition (%) of aP2 promoter activity
# Description: 293T cells (ATCC) were placed in the wells of a 48-well plate (1×10^5 cells/well) and stabilized. Introduced to the cells were PPARγ and TAZ expression vectors together with vectors aP2-luc (adipose fatty acid binding protein 2 promoter linked to luciferase) and pCMVβ Hong et al., Science 2005; 309:1074-8]. For observing the effect on transcription activation of the target gene by the PPARγ or TAZ protein expression, aP2-luc reporter gene was also introduced into the cells. For calibration of the introduction efficiency in cells, vector pCMVβ was introduced in cells in same amounts and the β-galactosidase activity was measured to calibrate the luciferase activity.
# After 24 hours, the cells were treated with each of the inventive compounds to a concentration of 10 μM and then further cultivated for 24 hours. Proteins of the resulting cells were extracted with a lysis solution comprising NP-40, and thus luciferase activity was measured (Promega, Sunnyvale, Calif., USA).
# Increased inhibitory effect on the aP2 promoter activity was analyzed and the results were calculated in percentage term based on the inhibitory effect on the aP2 promoter activity observed for the non-treated cells in a control group.
# RUNX2 = experiment: TAZ activity of stimulating RUNX2 function (6xOSE-luc reporter in 293T cells); conditions: for activity at 10 µM: Homo sapiens, HEK-293T, 24 hours, 293T cells, percentage based on non-treated control cells, read-out: Activity (%): osteocalcin promoter activity; for Additional stimulating activity on TAZ stimulation of RUNX2: 10 μM, considered additional when value exceeds 570% of the average increase by protein TAZ
# Procedure: Introduced in 293T cells were introduced RUNX2 and TAZ expression vector together with 6×OSE-luc (osteocalcin-specific element linked to luciferase, six copies of RUNX2-binding site in the osteocalcin promoter linked to luciferase) [Hong et al., Science 2005; 309:1074-8]. This test was for an evaluation of an activity of the inventive compounds in stimulating the luciferase activity which increases when RUNX2 binds to TAZ.
# After 24 hours, the cells were treated with each of the inventive compounds to a concentration of 10 μM and then further cultivated for 24 hours. The procedure of Test 2 was repeated to extract the cell protein, and then reporter gene analysis was conducted to quantify the effect of the inventive compounds on the TAZ activity in stimulating RUNX2. For comparing the transformation efficaciency, β-galactosidase expression vector (pCMVβ) was introduced to 293T cells and the β-galactosidase activity was measured for calibration.
# The osteocalcin promoter activity was analyzed in percentage term based on that of non-treated cells in a control group. When the value exceeds 570% of the average increase by protein TAZ, the compound was considered to have an additional stimulating activity.
# protein TAZ = target: T1, protein TAZ (Homo sapiens, UniProt Q9GZV5); experiment: Stimulating TAZ protein migration toward nucleus (GFP-TAZ high-content imaging); conditions: 0.5 h, after 30 minutes, Cos cells, percentage based on non-treated control cells, read-out: Expression (%): GFP expression of protein TAZ in the nucleus
# T1 construct: introducing full length TAZ cDNA synthesized by PCR method into vector pEGFP; expressed in transfected cells
# Procedure: Vector pEGFP-TAZ in which GFP (green fluorescence protein) is linked to protein TAZ was prepared, and nucleus specific histone protein (RFP-H2B) expression vector having introduced RFP (red fluorescence protein) therein was prepared. The vector pEGFP-TAZ was prepared by introducing full length TAZ cDNA synthesized by PCR method into vector pEGFP (Invitrogen, Carlsbad, Calif., USA) and then cloning. The expression vector RFP-H2B was prepared by introducing full length histone H2B cDNA into expression vector RFP (Clontech Laboratories, Inc., Palo Alto, Calif., USA) and then cloning.
# Cos? cells (ATCC, Manassas, Va.) were distributed to each well of a 96-well plate (5×10^3 cells/well) and stabilized, and then vectors pEGFP-TAZ and RFP-H2B were introduced into the cells by employing Effectene™ (Qiagen). After 48 hours, the cells were treated with each of the inventive compounds to a concentration of 10 μM. After 30 minutes, the movement of green fluorescent color toward the cell nucleus was observed continually by employing BD Pathway™ high-content bioimager (BD bioscience). Using a quantification program (BD IPLab™ for Pathway and BD™ Image Data Explorer), GFP expression in the nucleus of RFP-expressed cells was quantified.
# GFP expressions of protein TAZ in the nucleus were analyzed and calculated in percentage term based on that of non-treated cells in a control group, which are shown in Table 3.
# 3T3-L1 preadipocytes = experiment: Differentiation of 3T3-L1 cells into adipocytes (Oil-red O staining); conditions: for Inhibition of adipocyte differentiation (Oil-red O staining): compound added at each medium replacement, after 8 days
# Procedure: 3T3-L1 preadipocytes (ATCC CL-173) were dispersed in a DMEM medium comprising 10% FBS (fatal bovine serum , and then confluently cultivated for 48 hours in a 24-well plate (3×10^4 cells/well). 2 μM rosiglitazone, 5 μg/mL insulin, and 1 μM dexamethasone were added thereto to induce adipocyte differentiation.
# After 48 hours, the medium was replaced with a DMEM comprising 5 μg/mL insulin and 10% FBS (fatal bovine serum), and 48 hours later, the medium was replaced with a DMEM comprising 10% FBS. Then, the medium was replaced every 48 hours to evaluate adipocyte differentiation. The inventive compounds were each added during the replacement of the medium. After 8 days, the cells were fixed with 10% formalin, and Oil-red O staining was conducted to confirm adipocytes generated in cells.
# C3H10T1/2 cells = experiment: Differentiation of C3H10T1/2 cells into osteoblasts (Alizarin red S staining); conditions: 10 μM, after 20 days
# Procedure: C3H10T1/2 cells (ATCC CCL 226) were diluted in a α-MEM medium comprising 10% FBS, cultivated in a 96-well plate (1×10^4 cells/well) for 48 hours, and the medium was replaced every 48 hours to observe the osteoblast differentiation. On the initiation of differentiation, the medium was treated with 10 μM of each of the inventive compounds.
# After 20 days, the cells were fixed with 70% ethanol and stained with an Alizarin red S solution to confirm increased calcium in osteocytes. In the Alizarin red staining test, the degrees of osteoblast differention can be identified by the intensity of red color.
# T1 sequence (Q9GZV5 whole entry): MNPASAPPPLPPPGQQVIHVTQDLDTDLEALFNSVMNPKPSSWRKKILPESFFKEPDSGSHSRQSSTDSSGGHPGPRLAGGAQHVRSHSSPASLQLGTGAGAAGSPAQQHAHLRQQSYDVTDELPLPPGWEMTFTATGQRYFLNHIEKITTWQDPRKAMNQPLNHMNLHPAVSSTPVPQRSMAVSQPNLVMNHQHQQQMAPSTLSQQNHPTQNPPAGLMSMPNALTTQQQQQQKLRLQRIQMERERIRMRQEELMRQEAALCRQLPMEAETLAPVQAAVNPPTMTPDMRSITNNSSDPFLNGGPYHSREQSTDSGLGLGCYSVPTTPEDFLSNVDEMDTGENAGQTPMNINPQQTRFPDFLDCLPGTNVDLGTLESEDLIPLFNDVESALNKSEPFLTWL
Structure (SMILES),inhibition at 10 µM (PPARγ),activity at 10 µM (RUNX2),activity at 10 µM (protein TAZ),Additional stimulating activity on TAZ stimulation of RUNX2 (RUNX2),Inhibition of adipocyte differentiation (Oil-red O staining) (3T3-L1 preadipocytes),Inhibition of adipocyte differentiation at a higher concentration (3T3-L1 preadipocytes; treating at a higher concentration),Stimulation of osteoblast differentiation (Alizarin red staining) (C3H10T1/2 cells)
"CCCCc1nc2cc(/C=C/c3ccccc3)c(C(=O)OC)cc2n1Cc1ccc(-c2ccccc2-c2nnn[nH]2)cc1 [XIII, methyl 2-butyl-5-styryl-1-[2′-(1H-tetrazol-5-yl)biphenyl-4-ylmethyl]-1H-benzimidazol-6-carboxylate]",39.9%,569%,–,–,–,–,–
"CCCCc1nc2cc(-c3cccc[n+]3[O-])c(CF)nc2n1Cc1ccc(-c2ccccc2-c2nnn[nH]2)cc1 [VI, 2-butyl-5-fluoromethyl-6-(1-oxypyridin-2-yl)-3-[2′-(1H-tetrazol-5-yl)biphenyl-4-ylmethyl]-3H-imidazo[4,5-b]pyridine]",51.3%,483%,132%,–,–,–,–
"CCCCc1nc2cc(Br)c(COC(C)=O)nc2n1Cc1ccc(-c2ccccc2-c2nnn[nH]2)cc1 [X, 6-bromo-2-butyl-3-[2′-(1H-tetrazol-5-yl)biphenyl-4-ylmethyl]-3H-imidazo[4,5-b]pyridin-5-ylmethyl acetate]",57.5%,672%,–,additional stimulating activity was observed,–,–,–
"CCCCc1nc2c(C)c(-c3ccccc3)c(COCSC)nc2n1Cc1ccc(-c2ccccc2-c2nnn[nH]2)cc1 [XI, 2-butyl-7-methyl-5-((methylsulfanylmethoxy)methyl)-6-phenyl-3-[2′-(1H-tetrazol-5-yl)biphenyl-4-ylmethyl]-3H-imidazo[4,5-b]pyridine]",–,754%,134%,additional stimulating activity was observed,–,–,–
"CCCCc1nc2cc(-c3ccccn3)c(C(=O)OC)nc2n1Cc1ccc(-c2ccccc2-c2nnn[nH]2)cc1 [IV, methyl 2-butyl-6-pyridin-2-yl-3-[2′-(1H-tetrazol-5-yl)biphenyl-4-ylmethyl]-3H-imidazo[4,5-b]pyridine-5-carboxylate]",–,463%,135%,–,adipocyte differentiation was inhibited,–,–
"CCCCc1nc2cc(Br)c(COC(C)=O)nc2n1Cc1ccc(-c2ccccc2-c2nnnn2C(C)OCC)cc1 (centres unmarked) [IX, 6-bromo-2-butyl-3-{2′-[1-(1-ethoxyethyl)-1H-tetrazol-5-yl]biphenyl-4-ylmethyl}-3H-imidazo[4,5-b]pyridin-5-ylmethyl acetate]",22.7%,676%,147%,additional stimulating activity was observed,–,–,–
"CCCCc1nc2cc(C(=O)OC)c(/C=C/c3ccccc3)cc2n1Cc1ccc(-c2ccccc2-c2nnn[nH]2)cc1 [XII, methyl 2-butyl-6-styryl-1-[2′-(1H-tetrazol-5-yl)biphenyl-4-ylmethyl]-1H-benzimidazol-5-carboxylate]",> 60%,296%,149%,–,adipocyte differentiation was inhibited,–,–
"CCCCc1nc2cc(C(O)c3ccccc3)c(C(OC)OC)nc2n1Cc1ccc(-c2ccccc2-c2nnnn2C(C)OCC)cc1 (centres unmarked) [VII, (2-butyl-5-dimethoxymethyl-3-{2′-[1-(1-ethoxyethyl)-1H-tetrazol-5-yl]biphenyl-4-ylmethyl}-3H-imidazo[4,5-b]pyridin-6-yl)phenylmethanol]",46.7%,476%,160%,–,–,markedly increased inhibitory effect,–
"CCc1nc2c(C)cc(CO)nc2n1Cc1ccc(-c2ccccc2-c2nnn[nH]2)cc1 [II, {2-ethyl-7-methyl-3-[2′-(1H-tetrazol-5-yl)biphenyl-4-ylmethyl]-3H-imidazo [4,5-b]pyridin-5-yl}methanol]",43.2%,473%,130%,–,–,–,–
"CCCCc1nc2c(C)cc(CO)nc2n1Cc1ccc(-c2ccccc2-c2nnn[nH]2)cc1 [V, {2-butyl-7-methyl-3-[2′-(1H-tetrazol-5-yl)biphenyl-4-ylmethyl]-3H-imidazo[4,5-b]pyridin-5-yl}methanol]",32.3%,468%,151%,–,–,–,osteoblast differentiation was stimulated
"CCCCc1nc2cc(C(O)c3ccccc3)c(C(OC)OC)nc2n1Cc1ccc(-c2ccccc2-c2nnn[nH]2)cc1 (centres unmarked) [VIII, {2-butyl-5-dimethoxymethyl-3-[2′-(1H-tetrazol-5-yl)biphenyl-4-ylmethyl]-3H-imidazo[4,5-b]pyridin-6-yl}phenylmethanol]",> 60%,688%,–,additional stimulating activity was observed,–,–,–
"CCCCc1nc2cc(-c3cccnc3)c(C)nc2n1Cc1ccc(-c2ccccc2-c2nnn[nH]2)cc1 [III, 2-butyl-5-methyl-6-pyridin-3-yl-3-[2′-(1H-tetrazol-5-yl)biphenyl-4-ylmethyl]-3H-imidazo[4,5-b]pyridine]",> 60%,259%,157%,–,adipocyte differentiation was inhibited,–,osteoblast differentiation was stimulated
